Reference: the NIST ThermoML archive (doi:10.1021/je060138i)
± gives the expanded uncertainty stated by the source.

How the values were obtained:
[1] = for mass density: 293.15 K, 101.33 kPa, Liquid
[2] = refractive index (Na D-line) (dimensionless); settings: 293.15 K; 101.33 kPa; Liquid; Standard Abbe refractometry

Row | Normal melting temperature ([1]; Crystal, visual observation) [°C] | refractive index [2] | mass density [1] [kg/m3] | Structure (SMILES)
1 |  | 1.3718 ± 0.0008 | 1050 ± 1 | CC(=O)O [acetic acid]
2 |  | 1.343 ± 0.0007 | 783 ± 1 | CC#N [acetonitrile]
3 |  | 1.4237 ± 0.0007 | 1321 ± 1 | ClCCl [dichloromethane]
4 |  | 1.3719 ± 0.0007 | 899 ± 1 | CCOC(C)=O [ethyl acetate]

The next lines start with the compound.

Row | Structure (SMILES) | Normal melting temperature ([1]; Crystal, visual observation) [°C] | refractive index [2] | mass density [1] [kg/m3]
5 | O=P1(O)OCC2(CO1)COP(=O)(O)OC2 (stereo unspecified) | 310.50 ± 4.4 |  | 
6 | CC(C)=O [acetone] |  | 1.359 ± 0.0007 | 790 ± 1
